Experiments:
[1] = tested on: Erysiphe polygoni (synonym: Erysiphe betae); experiment: Test on the preventive effect against cucumber powdery mildew; type: in vivo; settings: 216 h, 5 ml per pot sprayed, cucumber cotyledon stage, 9 days after inoculation; for pest or weed control at 500 µg/mL: test solution A 500 ppm
Description: Compounds of the present invention were dissolved in a solvent for emulsion (a mixture of Sorpol (registered trademark) 3005XL (manufactured by Toho Chemical Industry Co., Ltd.): N-methylpyrrolidone: Solvesso (registered trademark) 200 (manufactured by ExxonMobil Chemical) in a ratio of 1:5:2) to prepare 20 wt % emulsifiable concentrates. Then, distilled water was added to dilute the emulsifiable concentrates to the prescribed concentration (500 ppm), and the obtained solutions were used in the following the Test Examples 1 to 8. Cucumber (varieties: Sagami Hanjiro) was seeded in 90 cm^3 plastic pot, and at the cotyledon stage, 5 ml per pot of test solution A of the compounds of the present invention was sprayed. After drying in air, the pot was placed in an air-conditioned greenhouse (20° C.), and a suspension of conidium of Erysiphe polygoni (synonym: Erysiphe betae) was sprayed. After the pot were replaced at the same temperature for 9 days, the proportion of the formed lesion in the inoculated leaves were counted to calculate the control value in accordance with the following formula. The test was carried out in duplicate. Control value=[1−(lesion area ratio in treated plot/lesion are a ratio in non-treated plot)]×100

[2] = tested on: Phaeosphaeria nodorum (Synonym: Septoria nodorum); experiment: Test on the preventive effect against wheat glume blotch; type: in vivo; settings: Parastagonospora nodorum, 144 h, 5 ml per pot, wheat 1.3-leaf stage, 2 days inoculation chamber then 6 days at 20° C.; for pest or weed control at 500 µg/mL: test solution A 500 ppm
Description: Compounds of the present invention were dissolved in a solvent for emulsion (a mixture of Sorpol (registered trademark) 3005XL (manufactured by Toho Chemical Industry Co., Ltd.): N-methylpyrrolidone: Solvesso (registered trademark) 200 (manufactured by ExxonMobil Chemical) in a ratio of 1:5:2) to prepare 20 wt % emulsifiable concentrates. Then, distilled water was added to dilute the emulsifiable concentrates to the prescribed concentration (500 ppm), and the obtained solutions were used in the following the Test Examples 1 to 8. Wheat (varieties: Haruyutaka) was seeded in 90 cm^3 plastic pot, and at 1.3-leaf stage, 5 ml per pot of test solution A of the compounds of the present invention was applied. One day after treatment, a suspension of conidium of Phaeosphaeria nodorum (Synonym: Septoria nodorum) was sprayed to the wheat, and the pot was left in the inoculation chamber at 20° C. under humidity of 100% RH for 2 days. Then, the pot was placed in an air-conditioned greenhouse (20° C.) for 6 days. The proportion of the formed lesion in the inoculated leaves were measured to calculate the control value in accordance with the same formula as in the Test Example 1. The test was carried out in duplicate.

[3] = tested on: Blumeria graminis f. sp. tritici; experiment: Test on the preventive effect against wheat powdery mildew; type: in vivo; settings: 168 h, 5 ml per pot, wheat 1.3-leaf stage, 7 days after inoculation; for pest or weed control at 500 µg/mL: test solution A 500 ppm
Description: Compounds of the present invention were dissolved in a solvent for emulsion (a mixture of Sorpol (registered trademark) 3005XL (manufactured by Toho Chemical Industry Co., Ltd.): N-methylpyrrolidone: Solvesso (registered trademark) 200 (manufactured by ExxonMobil Chemical) in a ratio of 1:5:2) to prepare 20 wt % emulsifiable concentrates. Then, distilled water was added to dilute the emulsifiable concentrates to the prescribed concentration (500 ppm), and the obtained solutions were used in the following the Test Examples 1 to 8. Wheat (varieties: Norin 61) was seeded in 90 cm^3 plastic pot, and at the 1.3-leaf stage, 5 ml per pot of test solution A of the compounds of the present invention were applied. One day after treatment, the pot was placed in an air-conditioned greenhouse (20° C.), and conidium of Blumeria graminis f. sp. tritici was inoculated to the wheat. 7 days after, the proportion of the formed lesion in the inoculated leaves were measured to calculate the control value in accordance with the same formula as in the Test Example 1. The test was carried out in duplicate.

Botrytis cinerea [4] = experiment: Test on the preventive effect against cucumber gray mold (spore inoculation); type: in vivo; settings: 72 h, 5 ml per pot, cucumber cut leaves, conidium inoculation, 3 days at 20° C.; for pest or weed control at 500 µg/mL: test solution A 500 ppm
Description: Compounds of the present invention were dissolved in a solvent for emulsion (a mixture of Sorpol (registered trademark) 3005XL (manufactured by Toho Chemical Industry Co., Ltd.): N-methylpyrrolidone: Solvesso (registered trademark) 200 (manufactured by ExxonMobil Chemical) in a ratio of 1:5:2) to prepare 20 wt % emulsifiable concentrates. Then, distilled water was added to dilute the emulsifiable concentrates to the prescribed concentration (500 ppm), and the obtained solutions were used in the following the Test Examples 1 to 8. Cucumber (varieties: Sagami Hanjiro) was seeded in 90 cm^3 plastic pot, and at the cotyledon stage, 5 ml per pot of test solution A of the compounds of the present invention was applied. After drying in air, the treated leaves were cut and transferred in plastic containers. 30 μl of a mixture of a suspension of conidium of Botrytis cinerea and a dissolved PDA medium in a ratio of 1:1 was dropped on each treated leaf and inoculated. After the inoculation, the plastic containers were placed in 20° C. with humid conditions for 3 days, and the proportion of the formed lesion in the inoculated leaves were counted to calculate the control value in accordance with the same formula as in the Test Example 1. The test was carried out in duplicate.

Botrytis cinerea [5] = experiment: Test on the preventive effect against cucumber gray mold (mycelium inoculation); type: in vivo; settings: 48 h, 5 ml per pot, cucumber cotyledon, agar block inoculation, 2 days at 20° C.; for pest or weed control at 500 µg/mL: test solution A 500 ppm
Description: Compounds of the present invention were dissolved in a solvent for emulsion (a mixture of Sorpol (registered trademark) 3005XL (manufactured by Toho Chemical Industry Co., Ltd.): N-methylpyrrolidone: Solvesso (registered trademark) 200 (manufactured by ExxonMobil Chemical) in a ratio of 1:5:2) to prepare 20 wt % emulsifiable concentrates. Then, distilled water was added to dilute the emulsifiable concentrates to the prescribed concentration (500 ppm), and the obtained solutions were used in the following the Test Examples 1 to 8. Cucumber (varieties: Sagami Hanjiro) was seeded in 90 cm^3 plastic pot, and at the cotyledon stage, 5 ml per pot of test solution A of the compounds of the present invention was applied. On the next day, the pot was transferred in a plastic container, and an agar blocks (diameter: 5 mm) containing Botrytis cinerea which was preliminarily cultivated in a PDA medium was inoculated on the cotyledon of the cucumber treated with the solution. After the inoculation, the plastic container was covered with a plastic sheet, then placed at 20° C. and humidified for 2 days. Thus the proportion of the formed lesion in the inoculated leaves were measured to calculate the control value in accordance with the same formula as in the Test Example 1. The test was carried out in duplicate.

Sclerotinia sclerotiorum = experiment: Test on the preventive effect against cucumber stem rot; type: in vivo; settings: 48 h, 5 ml per pot, agar block inoculation, 2 days at 20° C.; for pest or weed control at 500 µg/mL: test solution A 500 ppm
Description: Compounds of the present invention were dissolved in a solvent for emulsion (a mixture of Sorpol (registered trademark) 3005XL (manufactured by Toho Chemical Industry Co., Ltd.): N-methylpyrrolidone: Solvesso (registered trademark) 200 (manufactured by ExxonMobil Chemical) in a ratio of 1:5:2) to prepare 20 wt % emulsifiable concentrates. Then, distilled water was added to dilute the emulsifiable concentrates to the prescribed concentration (500 ppm), and the obtained solutions were used in the following the Test Examples 1 to 8. Cucumber (varieties: Sagami Hanjiro) was seeded in 90 cm^3 plastic pot, and at the cotyledon stage, 5 ml per pot of test solution A of the compounds of the present invention was applied. After drying in air, the pot was transferred in a plastic container, and an agar blocks (diameter: 5 mm) containing Sclerotinia sclerotiorum which was preliminarily cultivated in a PDA medium was inoculated to the seed leaves of the cucumber treated with the solution. After the inoculation, the plastic container was covered with a plastic sheet, and placed at 20° C. and humidified for 2 days, thus the proportion of the formed lesion in the inoculated leaves were measured to calculate the control value in accordance with the same formula as in the Test Example 1. The test was carried out in duplicate.

[6] = tested on: Barber pole worm (Haemonchus contortus); experiment: Insecticidal test against Barber pole worm (eggs, 96 well plate); type: in vivo; settings: 96 h, test solution B 100 ppm, 10 μl per well, 25° C. dark, 4 days after treatment, read-out: efficacy (unhatched eggs and inactive larvae relative to non-treated)
Description: (§1) Compounds of the present invention were dissolved in dimethyl sulfoxide to prepare 1 wt % solutions. Then, distilled water was added to dilute the solutions to the prescribed concentration (100 ppm), and the obtained solutions were used in the following the Test Examples 9 to 12. 60 μl of a potato dextrose 1% agar medium was added to each well of a 96 well plate, and 30 μl of sterilized water containing eggs of Barber pole worm (Haemonchus contortus) (10 eggs/3 μl) was added to each well. Further, 10 μl per well of test solution B of the compounds of the present invention was added, and the plate was left at rest at 25° C. under dark conditions.

[7] = tested on: Southern root-knot nematode (Meloidogyne incoqnita); experiment: Insecticidal test against Southern root-knot nematode (eggs, 96 well plate); type: in vivo; settings: 96 h, test solution B 100 ppm, 10 μl per well, 25° C. dark, 4 days after treatment, read-out: efficacy (unhatched eggs + inactive larvae relative to non-treated)
Description: as §1, with “Southern root-knot nematode (Meloidogyne incoqnita)” for “Barber pole worm (Haemonchus contortus)”

Row | melting point [°C] | Compound | pest or weed control at 500 µg/mL [1] [%] | pest or weed control at 500 µg/mL [2] [%] | pest or weed control at 500 µg/mL (Botrytis cinerea [4]) [%] | pest or weed control at 500 µg/mL (Sclerotinia sclerotiorum) [%] | also measured
1 |  | CC(NC(=O)c1ccccc1C(F)(F)F)C(SCC(F)(F)F)c1ncc(C#CC2CC2)cc1Cl (stereo not shown) [1-032] | ≥ 70 | ≥ 70 |  |  | 
2 |  | CC(NC(=O)c1ccccc1C(F)(F)F)C(OCC(F)(F)F)c1ncc(C#CC2CC2)cc1Cl (stereo not shown) [1-027] | ≥ 70 | ≥ 70 | ≥ 70 | ≥ 70 | pest or weed control at 500 µg/mL [3]: ≥ 70%; pest or weed control at 500 µg/mL (Botrytis cinerea [5]): ≥ 70%
3 | 43 to 46 | Cn1cc(C(=O)NCC(C#N)c2ncc(C#CC3CC3)cc2Cl)c(C(F)F)n1 (stereo not shown) [8-021, N-[2-[3-chchloro-5-(cyclopropylethynyl)pyridin-2-yl]-2-cyanoethyl]-3-difluoromethyl-1-methyl-1H-pyrazole-4-carboxamide] |  |  |  |  | 
4 |  | CC(NC(=O)c1cccnc1Cl)C(SCC(F)(F)F)c1ncc(C#CC2CC2)cc1Cl (stereo not shown) [3-032] | ≥ 70 | ≥ 70 | ≥ 70 | ≥ 70 | 
5 |  | CC(NC(=O)c1cccnc1C(F)(F)F)C(SCC(F)(F)F)c1ncc(C#CC2CC2)cc1Cl (stereo not shown) [3-034] | ≥ 70 | ≥ 70 | ≥ 70 | ≥ 70 | pest or weed control at 500 µg/mL (Botrytis cinerea [5]): ≥ 70%
6 | 157 to 158 | O=C(NCC(F)(F)c1ncc(C#CC2CC2)cc1Cl)c1ncccc1C(F)(F)F [2-001] |  |  |  |  | 
7 |  | O=C(NCC(CC(F)(F)F)c1ncc(C#CC2CC2)cc1Cl)c1ccccc1C(F)(F)F (stereo not shown) [1-010] | ≥ 70 | ≥ 70 | ≥ 70 | ≥ 70 | pest or weed control at 100 µg/mL [6]: ≥ 50%; pest or weed control at 100 µg/mL [7]: ≥ 50%
8 | 110 to 111 | Cn1cc(C(=O)NCC(F)(F)c2ncc(C#CCF)cc2Cl)c(C(F)F)n1 [8-005, N-[2-[3-chloro-5-(3-fluoro-1-propynyl)pyridin-2-yl]-2,2-difluoroethyl]-3-difluoromethyl-1-methyl-1H-pyrazole-4-carboxamide] |  |  |  |  | 
9 |  | CCOC(c1ncc(C#CC2CC2)cc1Cl)C(C)NC(=O)c1cccnc1C(F)F (stereo not shown) [3-022] |  |  |  |  | pest or weed control at 100 ppm ([1]; 100 ppm solution (symbol *)): ≥ 70%; pest or weed control at 100 ppm ([3]; 100 ppm solution (symbol *)): ≥ 70%; pest or weed control at 100 ppm (Botrytis cinerea [4]; 100 ppm solution (symbol *)): ≥ 70%; pest or weed control at 100 ppm (Botrytis cinerea [5]; 100 ppm solution (symbol *)): ≥ 70%; pest or weed control at 100 ppm ([2]; 100 ppm solution (symbol *)): ≥ 70%; pest or weed control at 100 ppm (Sclerotinia sclerotiorum; 100 ppm solution (symbol *)): ≥ 70%
10 |  | CCOC(c1ncc(C#CC2CC2)cc1Cl)C(C)NC(=O)c1ccccc1C(F)(F)F (stereo not shown) [1-026] | ≥ 70 | ≥ 70 | ≥ 70 | ≥ 70 | pest or weed control at 500 µg/mL [3]: ≥ 70%; pest or weed control at 500 µg/mL (Botrytis cinerea [5]): ≥ 70%
11 | 65 to 66 | CC(NC(=O)c1cccnc1C(F)(F)F)C(SCC(F)(F)F)c1ncc(C#CC2CC2)cc1Cl (stereo not shown) [3-034a] |  |  |  |  | 
12 | 113 to 115 | CC(F)(CNC(=O)c1cccnc1C(F)F)c1ncc(C#CC2CC2)cc1Cl (stereo not shown) [3-038, N-[2-[3-chloro-5-(cyclopropylethynyl)pyridin-2-yl]-2-fluoropropyl]-2-(difluoromethyl)nicotinamide] |  |  |  |  | 

From patent US10029986B2, “Alkynyl pyridine-substituted amide compound and pesticide” (NISSAN CHEMICAL INDUSTRIES, LTD., priority 2014, dated 2018)
